Measurements as given in the supplement of paper PMC8617591.

Key:
[1] = system: Mycobacterium tuberculosis Erdman (autoluminescent); test: total FIC50 (Loewe) at 50% inhibition, three-drug combination (log2); higher = more antagonistic
Experimental: (§1)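 DiaMOND equipotent three-drug combination dose responses (10 doses, 1.5- or 2-fold spacing, centred on IC90) against autoluminescent M. tuberculosis Erdman in 8 in vitro models. Read-out is OD600, or luminescence for the intracellular and dormancy models, normalised to untreated wells. Hill-fit Einf, AUC25 and GRinf are potency metrics; FIC50 and FIC90 are total Loewe fractional inhibitory concentrations as log2 (negative = synergy).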

[2] = system: Mycobacterium tuberculosis Erdman (autoluminescent); test: total FIC90 (Loewe) at 90% inhibition, three-drug combination (log2); higher = more antagonistic
Experimental: as §1

[3] = system: Mycobacterium tuberculosis Erdman (autoluminescent); test: Einf, fitted maximum growth inhibition of three-drug combination (fraction); higher = stronger maximal inhibition
Experimental: as §1

[4] = system: Mycobacterium tuberculosis Erdman (autoluminescent); test: AUC25, normalised area under dose response up to IC25 (three-drug combination) (fraction (0-1)); higher = more potent at low dose
Experimental: as §1

[5] = system: Mycobacterium tuberculosis Erdman (autoluminescent); test: GRinf, maximum normalised growth rate inhibition (three-drug combination) (unitless (-1 to 1)); higher = less effect (negative = killing)
Experimental: as §1

[6] = in vitro model: acidic pH 5.7, time point: constant (~7 days, model-specific)
[7] = in vitro model: acidic pH 5.7, time point: terminal (~4-5 doublings, model-specific)
[8] = in vitro model: butyrate, time point: constant (~7 days, model-specific)
[9] = in vitro model: butyrate, time point: terminal (~4-5 doublings, model-specific)
[10] = in vitro model: cholesterol 0.05 mM, time point: constant (~7 days, model-specific)
[11] = in vitro model: cholesterol 0.05 mM, time point: terminal (~4-5 doublings, model-specific)
[12] = in vitro model: cholesterol-high 0.2 mM, time point: constant (~7 days, model-specific)
[13] = in vitro model: cholesterol-high 0.2 mM, time point: terminal (~4-5 doublings, model-specific)
[14] = in vitro model: dormancy (butyrate + nitrate, low O2), time point: constant (~7 days, model-specific)
[15] = in vitro model: dormancy (butyrate + nitrate, low O2), time point: terminal (~4-5 doublings, model-specific)
[16] = in vitro model: standard 7H9 glycerol, time point: constant = terminal
[17] = in vitro model: valerate, time point: constant (~7 days, model-specific)
[18] = in vitro model: valerate, time point: terminal (~4-5 doublings, model-specific)
[19] = in vitro model: intracellular J774, time point: constant = terminal

## NNC(=O)c1ccncc1 [isoniazid] + O=[N+]([O-])c1cn2c(n1)OC[C@@H](OCc1ccc(OC(F)(F)F)cc1)C2 [pretomanid] + CO[C@H]1/C=C/O[C@@]2(C)Oc3c(C)c(O)c4c(O)c(c(/C=N/N5CCN(C)CC5)c(O)c4c3C2=O)NC(=O)/C(C)=C\C=C\[C@H](C)[C@H](O)[C@@H](C)[C@@H](O)[C@@H](C)[C@H](OC(C)=O)[C@@H]1C [rifampicin]
[1]; [6]
  total FIC50: 3.95
[1]; [7]
  total FIC50: 3.6
[1]; [8]
  total FIC50: 2.61
[1]; [9]
  total FIC50: 2.48
[1]; [10]
  total FIC50: 1.31
[1]; [11]
  total FIC50: 1.53
[1]; [12]
  total FIC50: 0.405
[1]; [13]
  total FIC50: 0.794
[1]; [14]
  total FIC50: 2.35
[1]; [15]
  total FIC50: 2.21
[1]; [16]
  total FIC50: 5.01
[1]; [17]
  total FIC50: 3.28
[1]; [18]
  total FIC50: 3.03
[2]; [7]
  total FIC90: 3.63
[2]; [8]
  total FIC90: 0.589
[2]; [9]
  total FIC90: 2.45
[2]; [11]
  total FIC90: 0.957
[2]; [13]
  total FIC90: 0.324
[2]; [14]
  total FIC90: 2.04
[2]; [15]
  total FIC90: 2.12
[2]; [19]
  total FIC90: -0.077
[2]; [16]
  total FIC90: 3.36
[2]; [18]
  total FIC90: 1.97
[3]; [6]
  Einf: 0.859
[3]; [7]
  Einf: 0.984
[3]; [8]
  Einf: 0.923
[3]; [9]
  Einf: 0.963
[3]; [10]
  Einf: 0.655
[3]; [11]
  Einf: 0.899
[3]; [12]
  Einf: 0.872
[3]; [13]
  Einf: 0.977
[3]; [14]
  Einf: 0.857
[3]; [15]
  Einf: 0.974
[3]; [19]
  Einf: 0.984
[3]; [16]
  Einf: 0.893
[3]; [17]
  Einf: 0.863
[3]; [18]
  Einf: 0.939
[4]; [6]
  AUC25: 0.0775
[4]; [7]
  AUC25: 0.0694
[4]; [8]
  AUC25: 0.0916
[4]; [9]
  AUC25: 0.0722
[4]; [10]
  AUC25: 0.0953
[4]; [11]
  AUC25: 0.0868
[4]; [12]
  AUC25: 0.0449
[4]; [13]
  AUC25: 0.0391
[4]; [14]
  AUC25: 0.066
[4]; [15]
  AUC25: 0.0408
[4]; [16]
  AUC25: 0.0661
[4]; [17]
  AUC25: 0.0615
[4]; [18]
  AUC25: 0.0349
[5]; [6]
  GRinf: -0.11
[5]; [7]
  GRinf: -0.197
[5]; [8]
  GRinf: 0.00511
[5]; [9]
  GRinf: 0.0279
[5]; [10]
  GRinf: -0.0786
[5]; [11]
  GRinf: -0.194
[5]; [12]
  GRinf: -0.204
[5]; [13]
  GRinf: -0.604
[5]; [14]
  GRinf: 0.266
[5]; [15]
  GRinf: -0.0694
[5]; [19]
  GRinf: -0.312
[5]; [16]
  GRinf: 0.151
[5]; [17]
  GRinf: 0.000666
[5]; [18]
  GRinf: 0.0355

## NNC(=O)c1ccncc1 [isoniazid] + O=[N+]([O-])c1cn2c(n1)OC[C@@H](OCc1ccc(OC(F)(F)F)cc1)C2 [pretomanid] + NC(=O)c1cnccn1 [pyrazinamide]
[1]; [6]
  total FIC50: -0.198
[1]; [7]
  total FIC50: -0.0964
[1]; [8]
  total FIC50: 0.158
[1]; [9]
  total FIC50: 0.227
[1]; [11]
  total FIC50: 5.94
[1]; [12]
  total FIC50: 0.524
[1]; [13]
  total FIC50: 0.832
[1]; [14]
  total FIC50: -0.215
[1]; [15]
  total FIC50: -0.137
[1]; [16]
  total FIC50: 0.311
[1]; [17]
  total FIC50: -0.24
[1]; [18]
  total FIC50: 0.0468
[2]; [7]
  total FIC90: -0.184
[2]; [8]
  total FIC90: 0.768
[2]; [9]
  total FIC90: 0.423
[2]; [13]
  total FIC90: 0.548
[2]; [14]
  total FIC90: -0.286
[2]; [15]
  total FIC90: -0.122
[2]; [19]
  total FIC90: 0.732
[2]; [18]
  total FIC90: 0.0214
[3]; [6]
  Einf: 0.815
[3]; [7]
  Einf: 0.976
[3]; [8]
  Einf: 0.946
[3]; [9]
  Einf: 0.972
[3]; [10]
  Einf: 0.696
[3]; [11]
  Einf: 0.924
[3]; [12]
  Einf: 0.874
[3]; [13]
  Einf: 1
[3]; [14]
  Einf: 0.882
[3]; [15]
  Einf: 0.984
[3]; [19]
  Einf: 1
[3]; [16]
  Einf: 0.923
[3]; [17]
  Einf: 0.888
[3]; [18]
  Einf: 0.922
[4]; [6]
  AUC25: 0.0986
[4]; [7]
  AUC25: 0.0871
[4]; [8]
  AUC25: 0.0971
[4]; [9]
  AUC25: 0.0657
[4]; [10]
  AUC25: 0.106
[4]; [11]
  AUC25: 0.0922
[4]; [12]
  AUC25: 0.0717
[4]; [13]
  AUC25: 0.0681
[4]; [14]
  AUC25: 0.0747
[4]; [15]
  AUC25: 0.0455
[4]; [16]
  AUC25: 0.0648
[4]; [17]
  AUC25: 0.115
[4]; [18]
  AUC25: 0.0719
[5]; [6]
  GRinf: -0.16
[5]; [7]
  GRinf: -0.481
[5]; [8]
  GRinf: -0.0723
[5]; [9]
  GRinf: -0.0263
[5]; [10]
  GRinf: -0.21
[5]; [11]
  GRinf: -0.353
[5]; [12]
  GRinf: -0.172
[5]; [13]
  GRinf: -0.653
[5]; [14]
  GRinf: 0.238
[5]; [15]
  GRinf: -0.172
[5]; [19]
  GRinf: -0.492
[5]; [16]
  GRinf: 0.0829
[5]; [17]
  GRinf: -0.0645
[5]; [18]
  GRinf: 0.077

## CC(=O)NC[C@H]1CN(c2ccc(N3CCOCC3)c(F)c2)C(=O)O1 [linezolid] + CO[C@H]1/C=C/O[C@@]2(C)Oc3c(C)c(O)c4c(O)c(c(/C=N/N5CCN(C6CCCC6)CC5)c(O)c4c3C2=O)NC(=O)/C(C)=C\C=C\[C@H](C)[C@H](O)[C@@H](C)[C@@H](O)[C@@H](C)[C@H](OC(C)=O)[C@@H]1C [rifapentine] + CO[C@H]1/C=C/O[C@@]2(C)Oc3c(C)c(O)c4c(O)c(c(/C=N/N5CCN(C)CC5)c(O)c4c3C2=O)NC(=O)/C(C)=C\C=C\[C@H](C)[C@H](O)[C@@H](C)[C@@H](O)[C@@H](C)[C@H](OC(C)=O)[C@@H]1C [rifampicin]
[1]; [6]
  total FIC50: 0.407
[1]; [7]
  total FIC50: 0.327
[1]; [8]
  total FIC50: 0.125
[1]; [9]
  total FIC50: 0.0289
[1]; [10]
  total FIC50: 0.106
[1]; [11]
  total FIC50: -0.0658
[1]; [12]
  total FIC50: 0.114
[1]; [13]
  total FIC50: 0.344
[1]; [14]
  total FIC50: 0.564
[1]; [15]
  total FIC50: -0.00521
[1]; [16]
  total FIC50: 0.208
[1]; [17]
  total FIC50: 0.124
[1]; [18]
  total FIC50: 0.039
[2]; [7]
  total FIC90: 0.0907
[2]; [9]
  total FIC90: -0.462
[2]; [11]
  total FIC90: 0.0643
[2]; [12]
  total FIC90: 0.179
[2]; [13]
  total FIC90: 0.213
[2]; [14]
  total FIC90: 0.837
[2]; [15]
  total FIC90: 0.318
[2]; [19]
  total FIC90: -0.258
[2]; [18]
  total FIC90: -0.378
[3]; [6]
  Einf: 0.893
[3]; [7]
  Einf: 0.979
[3]; [8]
  Einf: 0.869
[3]; [9]
  Einf: 0.933
[3]; [10]
  Einf: 0.654
[3]; [11]
  Einf: 0.909
[3]; [12]
  Einf: 0.934
[3]; [13]
  Einf: 1
[3]; [14]
  Einf: 0.884
[3]; [15]
  Einf: 0.965
[3]; [19]
  Einf: 0.93
[3]; [16]
  Einf: 0.879
[3]; [17]
  Einf: 0.862
[3]; [18]
  Einf: 0.933
[4]; [6]
  AUC25: 0.0833
[4]; [7]
  AUC25: 0.0709
[4]; [8]
  AUC25: 0.0767
[4]; [9]
  AUC25: 0.0594
[4]; [10]
  AUC25: 0.147
[4]; [11]
  AUC25: 0.127
[4]; [12]
  AUC25: 0.104
[4]; [13]
  AUC25: 0.0979
[4]; [14]
  AUC25: 0.0711
[4]; [15]
  AUC25: 0.0539
[4]; [16]
  AUC25: 0.0512
[4]; [17]
  AUC25: 0.0508
[4]; [18]
  AUC25: 0.029
[5]; [6]
  GRinf: -0.162
[5]; [7]
  GRinf: -0.204
[5]; [8]
  GRinf: 0.14
[5]; [9]
  GRinf: 0.106
[5]; [10]
  GRinf: -0.259
[5]; [11]
  GRinf: -0.305
[5]; [12]
  GRinf: -0.348
[5]; [13]
  GRinf: -0.881
[5]; [14]
  GRinf: 0.158
[5]; [15]
  GRinf: -0.00168
[5]; [19]
  GRinf: -0.12
[5]; [16]
  GRinf: 0.155
[5]; [17]
  GRinf: 0.0506
[5]; [18]
  GRinf: 0.0203
